Test results from patent publication US5726156A, “Cytokine regulatory agents and methods of use in pathologies and conditions associated with altered cytokine levels” (Trega Biosciences, Inc., priority 1995, dated 1998).

Tests used:
[1] = Reduction in body weight, Zucker fa/fa and Fa/+ rats; format: in vivo
Protocol: Adult Zucker fatty rats (fa/fa; 325-350 g) or non-obese Zucker rats (Fa/+; 250-275 g) each were divided into two groups. One group each of fa/fa and Fa/+ rats received intraperitoneal (ip) injections of 250 μg/kg EX-2, 3×/day, for 86 days, followed by 2×/day treatments for an additional 29 days. The other group of fa/fa and Fa/+rats received saline on the same schedule.
Administration of EX-2 caused a significant decrease in the weight gain of fa/fa and of Fa/+ rats (see FIG. 4). Specifically, saline treated fa/fa rats gained about 360 g during the […], whereas EX-2 treated fa/fa rats only gained 275 g, representing a 24% decrease in weight gain. […] In Fa/+ rats, the decreased weight gain was more modest, but again correlated to fat mass rather than lean muscle mass.
In other experiments, fa/fa rats received 0.5-10 mg/kg EX-2, 2×/day, for 14 days (1-20 mg/day). […] This weight loss correlated with […] consumption by the EX-2 treated rats as compared to the controls.

[2] = tested on: morphine-induced respiratory depression; assay: Morphine-induced respiratory depression; format: in vivo, rabbits; details: 10 + 20 + 20 μg/kg/rabbit iv; end of experiment (80 min)
Protocol: Male Shelton rabbits (3-4 kg) were restrained and fitted around the thorax, just behind the front limbs, with a respiration transducer (Model F-RCT; Grass Instruments; Quincy Ma). The transducer was connected to a grass polygraph via an EKG cable. An intravenous line was established for drug administration by cannulating the marginal ear vein using a 25 G butterfly needle.
Rabbit breathing was allowed to stabilize, then morphine sulfate (2 mg/kg in 0.5 ml saline) was administered by intravenous (iv) injection and respiratory rate and depth were monitored for 10 min. A second dose of morphine was administered, then, after 10 min, EX-2 or EX-3 (10 μg/kg in 0.5 ml saline) was administered, iv, and rabbits were monitored for 20 min. Two additional doses of EX-2 or EX-3 (20 μg/kg in 1.0 ml saline) were administered at 20 min intervals, i.e., 40 min and 60 min after the first morphine injection.
Results were calculated as the percent change from baseline values and are expressed as the difference of the mean value of the treated group minus the mean value of the control group at the end of the experiment (80 min).

[3] = tested on: kidney (cisplatin nephrotoxicity); assay: Cisplatin (CDDP) nephrotoxicity, renal function; format: in vivo, rats
Protocol: Male Sprague-Dawley were used to determine the effect of EX-2 on renal function after cisplatin (CDDP) administration. All rats were administered CDDP (4 mg/kg IP) and divided in 3 treatment groups (n=6/group). The groups were as follows: (1) Administration with vehicle and sterile PBS 3×/day; (2) Administration of EX-2 at a dose of 5 μg/kg, 3×/day; and (3) same as group 2 except the dose of EX-2 was 50 μg/kg, 3×/day. An infusion of ^3 H-inulin (0.6 μCi/ml in PBS) (2 ml/hr) was initiated at the end of the surgical preparation period. The continuous infusion was started 60 min prior to the renal function measurements and maintained to the end of the study. Glomerular filtration was assessed by inulin clearance techniques in two 30 min periods and renal blood flow (RBF) and renal plasma flow (RPF) were measured by inulin extraction techniques (arterial vs. renal vein inulin concentration) from left kidney renal vein blood sampled at the end of the second GFR measurement period. Urinary output was also monitored to determine both urine flow and fractional excretion of water. Urinary electrolyte (Na^+ and K^+) concentrations were analyzed by flame photometry (Model 51 Ca, Bacharch, inc.; Pittsburgh, Pa.) and urinary protein concentrations were determined. At the end of the measurement periods, the kidneys were removed for histological analysis.

[4] = tested on: kidney (renal ischemia/reperfusion); assay: Renal ischemia-reperfusion injury; format: in vivo, rats; set-up: RVR: unit not given here; details: I/R + EX-2 (50 or 500 μg/kg iv, dose not given); 1 hr clamping, after 60 min reperfusion
Protocol: Sprague-Dawley rats (250-300 g) were anesthetized with inactin® (120 mg/kg). After deep anesthesia was assured, the rats were cannulated in the trachea with polyethylene (PE) tubing (PE 240), jugular vein, femoral artery, bladder (PE 50 for previous 3 cannulations), and left ureter (stretched PE 50). Once cannulation was completed, a 2 cm flank incision above the left kidney was performed and the renal pelvis and vascular bundle were exposed. The tissue surrounding the left renal artery was gently dissected away from the artery. The exposed renal artery was clamped for 1 hr using a small vascular cross-over clamp. Just prior to clamping, EX-2 (50 or 500 μg/kg), ketorolac (KETO, 1 mg/kg), or vehicle was administered intravenously (iv) After 1 hr of clamping (ischemia), the clamp was gently removed with care taken to avoid damaging either the renal artery or nerves.

[5] = tested on: arachidonic acid-induced ear swelling; assay: Arachidonic acid-induced ear swelling; format: in vivo, mice; details: 100 μg/mouse IP 30 min prior to AA; 60 min after AA
Protocol: Experiments were performed using female Balb/c mice weighing 18-23 grams. Saline or 100 μg EX-2 or EX-3 was administered IP, 30 min prior to topical application of arachidonic acid (AA). A 10 μl pipet was used to apply 10 μl AA solution (100 mg/ml ethanol; Calbiochem-Novabiochem; San Diego Calif.) to the inner and outer surfaces of the right ear of each mouse. Ten μl ethanol, alone, was applied to the inner and outer surface of the left ear of each mouse. Ear thickness was measured with a hand-held spring loaded caliper immediately before and 60 min after AA application. Increase in ear thickness was calculated by subtracting the change observed in the control ear from the change observed in AA-treated ear. The value for each group (saline and control) is the average of the swelling observed in the individual mice in each group. The percent reduction of swelling is based on the swelling observed in the saline control group.

[6] = CDDP 4 mg/kg IP + 5 μg/kg EX-2 3×/day
[7] = CDDP 4 mg/kg IP + 50 μg/kg EX-2 3×/day

Ac-Nle-Gln-His-(D)Phe-Arg-(D)Trp-Gly-NH2 [EX-2]
decreased weight gain ([1]; Fa/+ (non-obese) rats, 250 μg/kg ip): more modest
epididymal fat pad weight ([1]; fa/fa rats, 250 μg/kg ip): decreased epididymal fat pad weight
body weight gained ([1]; fa/fa rats, 250 μg/kg ip 3×/day then 2×/day, 105 day treatment, saline about 360 g): 275 g
decrease in weight gain ([1]; fa/fa rats, 250 μg/kg ip, vs saline treated): 24%
decrease in body weight ([1]; fa/fa rats, 20 mg EX-2/day (10 mg/kg 2×/day), 14 days): ~10%
rate of weight gain ([1]; fa/fa rats, 0.5-10 mg/kg 2×/day, 14 days, each group): decreased rate of weight gain
Reduction in Morphine-induced Respiratory Depression [2]: 50%
GFR [3, 6]: 0.8 ± 0.2
RBF [3, 6]: 12.1 ± 2.0
RPF [3, 6]: 6.5 ± 1.0 ml/mm
GFR [3, 7]: 1.6 ± 0.4
RBF [3, 7]: 16.8 ± 2.2
RPF [3, 7]: 8.8 ± 1.1 ml/mm
GFR [4]: 0.5 ± 0.1
RPF [4]: 2.3 ± 0.3
RVR [4]: 1.8 ± 0.2
Reduction in arachidonic acid-induced Ear Swelling [5]: 72%
